The values below come from patent US20180370912A1, “COMPOUNDS AND METHODS FOR TREATING DISEASES MEDIATED BY PROTEIN DISULFIDE ISOMERASE” (Beth Israel Deaconess Medical Center, Inc., priority 2017, published 2018).

One assay addresses T1, full-length PDI (Homo sapiens, UniProt P07237).
T1 construct: FLAG; made in house; host or cells: Escherichia coli Origami B (DE3), pET-15b
The assay is described as follows: Small-angle X-ray scattering (SAXS). Here is the method:
Further purification of full-length PDI was achieved by gel filtration. PDI (1.5, 3.0 and 4.5 mg/mL) was dialyzed against 20 mM Tris, 150 mM NaCl, 5% glycerol (pH: 8.0) containing 0.5 mM bepristat 1b or 2b or DMSO control at 4° C. overnight. Evaluation by SAXS was performed on the SIBYLS beamline in the Advanced Light Source using a high throughput data collection method.

The target of a further assay is T2, ERp57 (Homo sapiens, UniProt P30101).
T2 construct: FLAG; made in house; host or cells: Escherichia coli Origami B (DE3), pET-15b
T2 sequence (P30101 25-505): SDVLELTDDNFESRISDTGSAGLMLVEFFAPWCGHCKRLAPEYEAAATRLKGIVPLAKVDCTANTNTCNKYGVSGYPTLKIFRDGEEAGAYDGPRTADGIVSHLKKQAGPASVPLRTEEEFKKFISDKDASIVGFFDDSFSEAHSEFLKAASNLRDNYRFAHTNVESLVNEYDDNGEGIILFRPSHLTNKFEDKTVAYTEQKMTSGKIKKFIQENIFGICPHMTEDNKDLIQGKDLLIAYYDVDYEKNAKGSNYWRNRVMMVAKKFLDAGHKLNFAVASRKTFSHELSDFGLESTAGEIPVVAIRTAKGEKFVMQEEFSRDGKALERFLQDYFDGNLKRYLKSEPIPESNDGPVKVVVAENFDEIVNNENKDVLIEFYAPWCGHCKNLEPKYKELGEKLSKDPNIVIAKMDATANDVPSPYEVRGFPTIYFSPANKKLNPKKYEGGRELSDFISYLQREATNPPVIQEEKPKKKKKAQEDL
As to the kind of experiment: Di-eosin-GSSG disulfide reductase assay. In kind it is biochemical. Here is the method:
(§1) The probe di-eosin glutathione disulfide, di-eosin-GSSG, was prepared as previously described in Raturi, A., Vacratsis, P. O., Seslija, D., Lee, L. & Mutus, B., Biochem J 391, 351-357 (2005). Reductase activity of purified thiol isomerases and PDI domains was monitored in a 96-well fluorescence plate format. PDI, AGHA-PDI, ERpS, ERp57, ERp72 and PDI domains were assayed at 50 nM in the presence or absence of the indicated small molecules, peptides or cathepsin G. The assay included 100 mM potassium phosphate (pH 7.4) containing 2 mM EDTA, 5 μM DTT and 150 nM of the di-eosin GSSG probe. The increase in fluorescence was determined for 20 minutes by excitation at 520 nm and emission at 550 nm in a Synergy Biotek 4. The reduction of 150 nM di-eosin-GSSG by 5 μM DTT in the presence or absence of mentioned small molecules, peptides or proteins served as a negative control.

A further assay has as its target T3, ERp5 (Homo sapiens, UniProt Q15084).
T3 construct: recombinant His-tagged full-length ERp5, ERp72 and PDI domain fragments; His; made in house; host or cells: Escherichia coli Origami B (DE3), pET-15b
T3 sequence (Q15084 20-440): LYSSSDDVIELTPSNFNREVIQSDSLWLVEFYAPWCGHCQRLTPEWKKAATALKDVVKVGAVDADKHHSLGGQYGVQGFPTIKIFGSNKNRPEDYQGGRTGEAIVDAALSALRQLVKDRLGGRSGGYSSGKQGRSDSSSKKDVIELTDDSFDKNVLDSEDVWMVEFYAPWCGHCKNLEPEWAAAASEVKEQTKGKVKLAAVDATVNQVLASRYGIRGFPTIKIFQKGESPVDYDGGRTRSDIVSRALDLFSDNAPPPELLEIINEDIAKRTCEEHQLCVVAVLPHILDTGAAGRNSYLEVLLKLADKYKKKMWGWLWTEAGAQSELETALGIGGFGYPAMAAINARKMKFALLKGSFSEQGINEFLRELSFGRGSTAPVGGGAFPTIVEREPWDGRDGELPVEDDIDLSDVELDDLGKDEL
The assay is described as follows: Di-eosin-GSSG disulfide reductase assay. It counts as biochemical. As for the experimental part:
as §1

For another assay, the target named is T4, ERp72 (Homo sapiens, UniProt P13667).
T4 construct: recombinant His-tagged full-length ERp5, ERp72 and PDI domain fragments; His; made in house; host or cells: Escherichia coli Origami B (DE3), pET-15b
T4 sequence (P13667 21-645): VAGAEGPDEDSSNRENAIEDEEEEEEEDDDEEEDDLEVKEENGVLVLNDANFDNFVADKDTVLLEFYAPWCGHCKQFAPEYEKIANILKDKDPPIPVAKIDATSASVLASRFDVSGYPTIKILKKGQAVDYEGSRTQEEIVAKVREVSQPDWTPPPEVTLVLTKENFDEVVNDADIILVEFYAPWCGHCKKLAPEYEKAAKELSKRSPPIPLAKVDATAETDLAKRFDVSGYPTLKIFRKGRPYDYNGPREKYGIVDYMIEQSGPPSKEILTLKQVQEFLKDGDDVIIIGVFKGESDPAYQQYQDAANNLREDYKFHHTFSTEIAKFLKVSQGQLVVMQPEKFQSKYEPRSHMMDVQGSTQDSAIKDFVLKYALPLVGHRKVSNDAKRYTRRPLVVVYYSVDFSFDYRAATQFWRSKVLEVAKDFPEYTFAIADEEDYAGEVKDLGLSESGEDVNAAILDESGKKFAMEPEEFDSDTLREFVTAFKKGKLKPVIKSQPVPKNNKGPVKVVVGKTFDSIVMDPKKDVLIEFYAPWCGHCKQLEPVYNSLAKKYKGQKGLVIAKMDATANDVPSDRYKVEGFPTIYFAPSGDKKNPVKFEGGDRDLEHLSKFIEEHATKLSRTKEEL
The assay is described as follows: Di-eosin-GSSG disulfide reductase assay. It counts as biochemical. As for the experimental part: as §1

T1 sequence (P07237 18-508): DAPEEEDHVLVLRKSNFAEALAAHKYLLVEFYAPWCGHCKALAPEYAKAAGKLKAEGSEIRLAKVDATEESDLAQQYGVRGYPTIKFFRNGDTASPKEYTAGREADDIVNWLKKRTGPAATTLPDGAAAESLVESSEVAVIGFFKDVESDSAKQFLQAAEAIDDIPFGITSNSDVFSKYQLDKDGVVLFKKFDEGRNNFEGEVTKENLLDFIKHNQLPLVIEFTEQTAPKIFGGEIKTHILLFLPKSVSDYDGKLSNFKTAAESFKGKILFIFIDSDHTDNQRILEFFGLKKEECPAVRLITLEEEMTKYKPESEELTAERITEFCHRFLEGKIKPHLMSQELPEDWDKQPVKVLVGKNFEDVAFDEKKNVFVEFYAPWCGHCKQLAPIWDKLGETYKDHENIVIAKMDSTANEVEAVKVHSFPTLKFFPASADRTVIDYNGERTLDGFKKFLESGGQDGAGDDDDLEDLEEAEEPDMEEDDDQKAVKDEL

Regarding `CCOC(=O)c1c(CNCCN(CC)CC)n(-c2ccccc2)c2cc(Br)c(O)cc12` [bepristat 2a], the “PDI conformation by SAXS” value on full-length PDI is listed as “more compact conformation”. In addition, the “cleavage of di-eosin-GSSG by ERp57 (catalytic activity)” value on ERp57 is “did not augment activity”. For the same compound, the “cleavage of di-eosin-GSSG by ERp5 (catalytic activity)” value at ERp5 is listed as “did not augment activity”. In addition, the “cleavage of di-eosin-GSSG by ERp72 (catalytic activity)” value on ERp72 was “did not augment activity”.
